Here are results for 3 molecules from paper PMC2719696, “Kinetics and Cellular Site of Glycolipid Loading Control the Outcome of Natural Killer T Cell Activation” (Immunity, 2009).

Assay [1] relates to detergent-resistant membrane microdomains. In words: Flow cytometry assay of αGalCer-mCD1d complex association with detergent-resistant membrane microdomains (JAWS II cells). Format: cell-based, mouse. To be noted: 0.1% Triton X-100. Here is the method:
The scale bar represents 10 μm. Results shown for individual cells were typical of >20 cells analyzed for each parameter with or without incubation with the indicated glycolipids. (B) Quantitation of colocalization shown in (A) for multiple randomly selected individual cells. Pearson correlation coefficient for the distribution of pixel densities for K253 or L363 fluorescence compared to cholera toxin B-specific fluorescence are plotted for each individual cell analyzed. Values for p were determined by one-way ANOVA. (C) Flow cytometry assay for αGalCer-mCD1d complex association with detergent-resistant membrane microdomains. […] Baseline fluorescence levels were recorded for 15 s, after which Triton X-100 was added to 0.1% (arrow) and recording was resumed for another ∼60 s. Each symbol indicates mean fluorescence intensity (MFI) averaged over 1 s of recording. […]
Another property of lipid rafts is their resistance to solubilization by nonionic detergents due to their enrichment in cholesterol, sphingomyelin, and saturated acyl chains ([Pike, 2008]). To assess the localization of αGalCer-mCD1d complexes in detergent insoluble microdomains, we used a flow-cytometry-based assay that quantitates the resistance of lipid-raft-associated transmembrane proteins to extraction by low concentrations of Triton X-100 ([Gombos et al., 2004a; Peng et al., 2007]). […]
In general terms: Flow cytometry measures light scatter and fluorescence of single cells or particles in a stream.

A further assay relates to GM1-enriched lipid rafts. Format: cell-based, mouse. To be noted: JAWS II cells, 18 hr with 100 nM glycolipid.

Take `CCCCCC=CCC=CCCCCCCCCCC(=O)NC(COC1OC(CO)C(O)C(O)C1O)C(O)C(O)CCCCCCCCCCCCCC` (stereo not shown) [αGalCer-C20:2]: the “extraction of mCD1d complexes (L363 staining) by detergent, in words” value in assay [1] was “significant extraction by detergent”.
For `CCCCCCCCCCCCCCC(O)C(O)C(COC1OC(CO)C(O)C(O)C1O)NC(=O)CCCCCCCCC` (stereo not shown) [αGalCer-C10:0], the “extraction of mCD1d complexes (L363 staining) by detergent, in words” value in assay [1] is given as “mainly localized to detergent soluble nonraft domains”. Also, the “colocalization of L363 staining with CTxB staining” value in the assay on GM1-enriched lipid rafts was “extremely limited colocalization with CTxB staining”.
Turning to `CCCCCCCCCCCCCCCCCCCCCCCCCC(=O)NC(COC1OC(CO)C(O)C(O)C1O)C(O)C(O)CCCCCCCCCCCCCC` (stereo not shown) [αGalCer-C26:0, reference compound], the “colocalization of L363 staining with CTxB staining” value in the assay with GM1-enriched lipid rafts was “strong colocalization with CTxB staining”.
